ChEMBL document CHEMBL4507291 (2021)

Tests used:
[1] = biological target: Bone morphogenetic protein receptor type-1A (Homo sapiens) (UniProt P36894)
[2] = biological target: T1, Serine/threonine-protein kinase Sgk3 (Homo sapiens) (UniProt Q96BR1)
T1 sequence (whole entry): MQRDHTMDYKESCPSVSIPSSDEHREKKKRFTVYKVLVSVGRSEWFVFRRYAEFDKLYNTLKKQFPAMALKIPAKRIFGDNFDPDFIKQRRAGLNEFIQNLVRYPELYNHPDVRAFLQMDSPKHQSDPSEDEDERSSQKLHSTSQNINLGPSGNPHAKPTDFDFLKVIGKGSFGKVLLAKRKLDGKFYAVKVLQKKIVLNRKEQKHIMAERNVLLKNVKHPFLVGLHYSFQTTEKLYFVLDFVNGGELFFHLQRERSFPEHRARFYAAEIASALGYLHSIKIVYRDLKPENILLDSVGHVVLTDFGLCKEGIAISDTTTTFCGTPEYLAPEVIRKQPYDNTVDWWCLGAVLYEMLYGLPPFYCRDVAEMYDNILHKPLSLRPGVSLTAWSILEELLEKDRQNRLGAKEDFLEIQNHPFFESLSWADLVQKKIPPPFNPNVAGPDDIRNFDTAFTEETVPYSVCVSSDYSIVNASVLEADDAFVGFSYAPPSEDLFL

[3] = biological target: Phosphorylase b kinase gamma catalytic chain, skeletal muscle/heart isoform (Homo sapiens) (UniProt Q16816)
[4] = tested on: Mast/stem cell growth factor receptor Kit (Homo sapiens), P10721 [D816V]
[5] = biological target: Tyrosine-protein kinase Fes/Fps (Homo sapiens) (UniProt P07332)
[6] = biological target: T2, Ephrin type-A receptor 8 (Homo sapiens) (UniProt P29322)
T2 sequence (whole entry): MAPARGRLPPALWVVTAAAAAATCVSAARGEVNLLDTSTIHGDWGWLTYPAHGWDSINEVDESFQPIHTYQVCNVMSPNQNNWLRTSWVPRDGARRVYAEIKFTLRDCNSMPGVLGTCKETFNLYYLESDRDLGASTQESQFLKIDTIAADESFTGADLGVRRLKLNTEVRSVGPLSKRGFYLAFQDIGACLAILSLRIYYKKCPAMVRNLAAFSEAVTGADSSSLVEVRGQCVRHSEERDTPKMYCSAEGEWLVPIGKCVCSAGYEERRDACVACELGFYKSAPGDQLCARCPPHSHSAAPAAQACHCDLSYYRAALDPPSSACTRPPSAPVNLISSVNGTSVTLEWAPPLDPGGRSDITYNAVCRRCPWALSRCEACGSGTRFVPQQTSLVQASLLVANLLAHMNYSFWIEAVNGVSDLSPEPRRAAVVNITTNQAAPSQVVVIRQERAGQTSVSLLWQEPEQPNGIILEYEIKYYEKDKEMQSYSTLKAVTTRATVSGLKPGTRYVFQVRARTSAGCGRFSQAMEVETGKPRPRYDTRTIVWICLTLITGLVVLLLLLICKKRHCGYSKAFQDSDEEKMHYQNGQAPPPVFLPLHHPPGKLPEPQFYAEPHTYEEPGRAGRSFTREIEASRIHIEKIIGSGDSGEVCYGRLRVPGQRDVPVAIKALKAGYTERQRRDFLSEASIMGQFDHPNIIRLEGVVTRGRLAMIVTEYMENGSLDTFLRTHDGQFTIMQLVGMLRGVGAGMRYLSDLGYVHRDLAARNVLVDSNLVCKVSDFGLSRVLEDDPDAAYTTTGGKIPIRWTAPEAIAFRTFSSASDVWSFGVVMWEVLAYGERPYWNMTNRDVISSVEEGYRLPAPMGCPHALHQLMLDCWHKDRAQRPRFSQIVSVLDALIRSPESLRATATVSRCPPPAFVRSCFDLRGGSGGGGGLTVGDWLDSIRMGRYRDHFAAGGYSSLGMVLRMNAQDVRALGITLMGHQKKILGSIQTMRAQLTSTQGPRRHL

[7] = biological target: Mitogen-activated protein kinase kinase kinase 6 (Homo sapiens) (UniProt O95382)
[8] = biological target: Dual specificity mitogen-activated protein kinase kinase 5 (Homo sapiens) (UniProt Q13163)
[9] = biological target: Serine/threonine-protein kinase MARK1 (Homo sapiens) (UniProt Q9P0L2)
[10] = biological target: Dual specificity mitogen-activated protein kinase kinase 2 (Homo sapiens) (UniProt P36507)
[11] = biological target: Receptor-type tyrosine-protein kinase FLT3 (Homo sapiens) (UniProt P36888)
[12] = biological target: Cyclin-dependent kinase 7 (Homo sapiens) (UniProt P50613)
[13] = biological target: TRAF2 and NCK-interacting protein kinase (Homo sapiens) (UniProt Q9UKE5)
[14] = biological target: Macrophage colony-stimulating factor 1 receptor (Homo sapiens) (UniProt P07333)
[15] = biological target: MAP kinase-interacting serine/threonine-protein kinase 2 (Homo sapiens) (UniProt Q9HBH9)
[16] = biological target: Serine/threonine-protein kinase 32C (Homo sapiens) (UniProt Q86UX6)
[17] = biological target: Rho-associated protein kinase 1 (Homo sapiens) (UniProt Q13464)
[18] = biological target: Serine/threonine-protein kinase PAK 3 (Homo sapiens) (UniProt O75914)
[19] = biological target: BDNF/NT-3 growth factors receptor (Homo sapiens) (UniProt Q16620)
[20] = biological target: Mast/stem cell growth factor receptor Kit (Homo sapiens) (UniProt P10721)
[21] = biological target: Tyrosine-protein kinase receptor Tie-1 (Homo sapiens) (UniProt P35590)
[22] = biological target: Serine/threonine-protein kinase PLK1 (Homo sapiens) (UniProt P53350)
[23] = biological target: Cyclin-dependent kinase 15 (Homo sapiens) (UniProt Q96Q40)
[24] = Compound concentration 100.0 nM
[25] = Compound concentration 1000.0 nM

Measured: residual activity

Chain of MAP kinase-interacting serine/threonine-protein kinase 2 (Homo sapiens) (Q9HBH9 whole entry, looked up): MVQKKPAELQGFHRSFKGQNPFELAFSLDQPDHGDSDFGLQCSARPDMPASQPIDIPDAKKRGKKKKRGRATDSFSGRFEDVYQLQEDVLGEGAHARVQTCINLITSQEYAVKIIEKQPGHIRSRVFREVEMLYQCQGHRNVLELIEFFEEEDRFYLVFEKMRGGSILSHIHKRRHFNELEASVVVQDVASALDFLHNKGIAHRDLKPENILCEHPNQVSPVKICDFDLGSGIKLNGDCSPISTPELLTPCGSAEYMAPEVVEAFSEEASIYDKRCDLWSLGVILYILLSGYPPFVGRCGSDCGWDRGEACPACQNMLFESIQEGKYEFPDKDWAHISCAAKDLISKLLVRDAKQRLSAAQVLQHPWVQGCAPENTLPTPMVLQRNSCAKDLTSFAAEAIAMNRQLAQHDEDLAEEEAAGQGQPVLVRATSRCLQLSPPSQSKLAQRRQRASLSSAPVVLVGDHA
Chain of Mitogen-activated protein kinase kinase kinase 6 (Homo sapiens) (O95382 whole entry): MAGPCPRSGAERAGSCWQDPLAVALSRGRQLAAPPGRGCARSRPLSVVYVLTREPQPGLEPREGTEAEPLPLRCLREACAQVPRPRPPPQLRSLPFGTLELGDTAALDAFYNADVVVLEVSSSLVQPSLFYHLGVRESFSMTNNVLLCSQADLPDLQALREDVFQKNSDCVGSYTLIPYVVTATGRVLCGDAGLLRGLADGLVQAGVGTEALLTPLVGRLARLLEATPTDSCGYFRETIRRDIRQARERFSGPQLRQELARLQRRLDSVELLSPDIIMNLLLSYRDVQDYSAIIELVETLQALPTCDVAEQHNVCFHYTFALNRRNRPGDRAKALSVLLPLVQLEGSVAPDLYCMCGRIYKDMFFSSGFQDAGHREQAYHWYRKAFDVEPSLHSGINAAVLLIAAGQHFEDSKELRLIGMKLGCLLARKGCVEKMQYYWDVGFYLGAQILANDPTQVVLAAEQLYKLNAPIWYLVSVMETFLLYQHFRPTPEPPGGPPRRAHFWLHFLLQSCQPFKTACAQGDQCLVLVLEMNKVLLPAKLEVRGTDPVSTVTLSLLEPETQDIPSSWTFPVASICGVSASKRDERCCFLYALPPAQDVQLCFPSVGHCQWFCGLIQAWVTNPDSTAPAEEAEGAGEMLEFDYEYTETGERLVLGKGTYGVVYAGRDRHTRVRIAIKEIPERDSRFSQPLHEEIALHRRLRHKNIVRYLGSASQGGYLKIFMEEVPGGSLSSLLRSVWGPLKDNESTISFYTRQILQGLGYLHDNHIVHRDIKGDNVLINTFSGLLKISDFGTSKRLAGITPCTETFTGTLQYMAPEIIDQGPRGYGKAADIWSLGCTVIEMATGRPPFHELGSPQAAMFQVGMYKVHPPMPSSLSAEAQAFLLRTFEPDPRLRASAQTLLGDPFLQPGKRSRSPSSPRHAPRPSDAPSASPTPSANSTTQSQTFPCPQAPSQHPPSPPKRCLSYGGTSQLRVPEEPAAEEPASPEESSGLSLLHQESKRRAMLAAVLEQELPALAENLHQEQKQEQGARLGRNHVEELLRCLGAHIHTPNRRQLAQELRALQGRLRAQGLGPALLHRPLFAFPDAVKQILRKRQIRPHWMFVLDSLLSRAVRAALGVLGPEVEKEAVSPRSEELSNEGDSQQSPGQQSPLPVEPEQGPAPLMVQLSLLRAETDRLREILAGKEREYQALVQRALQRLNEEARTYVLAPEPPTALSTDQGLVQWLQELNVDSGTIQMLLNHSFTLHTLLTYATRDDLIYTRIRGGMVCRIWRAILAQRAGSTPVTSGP
Chain of Mast/stem cell growth factor receptor Kit (Homo sapiens), P10721 [D816V] (P10721 whole entry D816V): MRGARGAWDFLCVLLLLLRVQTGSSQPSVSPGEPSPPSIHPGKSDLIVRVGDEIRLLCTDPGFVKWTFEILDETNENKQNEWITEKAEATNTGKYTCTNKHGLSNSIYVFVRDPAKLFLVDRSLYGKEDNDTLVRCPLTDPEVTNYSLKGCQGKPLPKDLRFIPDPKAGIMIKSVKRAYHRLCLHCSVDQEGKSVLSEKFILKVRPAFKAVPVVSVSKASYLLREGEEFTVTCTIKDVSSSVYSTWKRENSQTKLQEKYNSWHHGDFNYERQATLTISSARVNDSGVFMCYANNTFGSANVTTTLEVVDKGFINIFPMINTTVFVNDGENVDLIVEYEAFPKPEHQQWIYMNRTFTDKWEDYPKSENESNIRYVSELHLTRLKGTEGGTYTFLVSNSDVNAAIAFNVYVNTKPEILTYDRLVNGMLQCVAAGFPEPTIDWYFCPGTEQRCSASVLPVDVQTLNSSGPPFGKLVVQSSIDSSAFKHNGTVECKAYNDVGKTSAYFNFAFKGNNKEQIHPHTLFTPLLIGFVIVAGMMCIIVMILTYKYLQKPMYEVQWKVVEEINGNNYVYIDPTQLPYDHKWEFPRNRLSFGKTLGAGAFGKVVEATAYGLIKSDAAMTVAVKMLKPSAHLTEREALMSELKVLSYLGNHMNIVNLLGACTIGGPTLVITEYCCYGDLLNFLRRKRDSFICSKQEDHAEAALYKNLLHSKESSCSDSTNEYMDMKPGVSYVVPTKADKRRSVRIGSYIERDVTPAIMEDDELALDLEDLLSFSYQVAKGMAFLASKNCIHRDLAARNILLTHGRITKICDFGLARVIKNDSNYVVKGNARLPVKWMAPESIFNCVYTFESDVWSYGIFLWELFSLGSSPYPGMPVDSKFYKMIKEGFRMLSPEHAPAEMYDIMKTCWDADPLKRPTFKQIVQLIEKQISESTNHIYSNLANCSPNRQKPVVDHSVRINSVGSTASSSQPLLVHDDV
Chain of Bone morphogenetic protein receptor type-1A (Homo sapiens) (P36894 whole entry): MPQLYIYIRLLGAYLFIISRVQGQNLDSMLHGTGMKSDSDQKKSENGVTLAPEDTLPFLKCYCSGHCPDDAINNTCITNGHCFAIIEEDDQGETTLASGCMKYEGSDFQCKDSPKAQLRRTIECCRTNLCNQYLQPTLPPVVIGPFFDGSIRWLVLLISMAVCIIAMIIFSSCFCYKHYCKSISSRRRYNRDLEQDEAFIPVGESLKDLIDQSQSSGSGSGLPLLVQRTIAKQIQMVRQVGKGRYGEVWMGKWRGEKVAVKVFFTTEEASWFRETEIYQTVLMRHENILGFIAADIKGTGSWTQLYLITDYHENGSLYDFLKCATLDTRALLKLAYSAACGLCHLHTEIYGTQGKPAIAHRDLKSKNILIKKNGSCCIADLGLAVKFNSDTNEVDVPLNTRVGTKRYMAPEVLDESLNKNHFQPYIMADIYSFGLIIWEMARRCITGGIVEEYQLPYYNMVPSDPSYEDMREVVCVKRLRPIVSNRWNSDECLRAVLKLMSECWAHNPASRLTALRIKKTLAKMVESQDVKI
Chain of Cyclin-dependent kinase 15 (Homo sapiens) (Q96Q40 whole entry): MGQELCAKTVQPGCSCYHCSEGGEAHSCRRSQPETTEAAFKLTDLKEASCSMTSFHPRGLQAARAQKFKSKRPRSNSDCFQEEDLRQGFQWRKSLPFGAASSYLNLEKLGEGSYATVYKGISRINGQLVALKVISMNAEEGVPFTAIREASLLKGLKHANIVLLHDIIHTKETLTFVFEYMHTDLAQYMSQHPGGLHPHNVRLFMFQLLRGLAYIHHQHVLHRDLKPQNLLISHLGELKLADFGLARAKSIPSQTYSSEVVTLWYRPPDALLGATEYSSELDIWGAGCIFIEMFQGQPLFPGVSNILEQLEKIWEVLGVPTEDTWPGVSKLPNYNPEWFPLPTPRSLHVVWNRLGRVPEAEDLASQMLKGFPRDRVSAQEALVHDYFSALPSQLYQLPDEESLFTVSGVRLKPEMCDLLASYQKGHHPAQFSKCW
Chain of Dual specificity mitogen-activated protein kinase kinase 5 (Homo sapiens) (Q13163 whole entry): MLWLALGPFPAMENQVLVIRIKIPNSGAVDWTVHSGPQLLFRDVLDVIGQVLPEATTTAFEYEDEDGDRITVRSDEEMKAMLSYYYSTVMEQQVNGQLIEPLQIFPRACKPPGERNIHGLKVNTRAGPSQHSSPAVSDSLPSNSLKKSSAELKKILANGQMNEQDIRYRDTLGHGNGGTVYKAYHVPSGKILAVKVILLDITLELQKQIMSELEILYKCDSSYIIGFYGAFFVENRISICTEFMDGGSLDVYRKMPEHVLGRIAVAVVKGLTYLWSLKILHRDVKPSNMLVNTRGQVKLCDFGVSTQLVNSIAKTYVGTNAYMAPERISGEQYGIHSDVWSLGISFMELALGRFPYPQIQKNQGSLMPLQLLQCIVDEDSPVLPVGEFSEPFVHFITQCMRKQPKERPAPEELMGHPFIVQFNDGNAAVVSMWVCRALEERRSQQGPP
Chain of Serine/threonine-protein kinase PAK 3 (Homo sapiens) (O75914 whole entry, looked up): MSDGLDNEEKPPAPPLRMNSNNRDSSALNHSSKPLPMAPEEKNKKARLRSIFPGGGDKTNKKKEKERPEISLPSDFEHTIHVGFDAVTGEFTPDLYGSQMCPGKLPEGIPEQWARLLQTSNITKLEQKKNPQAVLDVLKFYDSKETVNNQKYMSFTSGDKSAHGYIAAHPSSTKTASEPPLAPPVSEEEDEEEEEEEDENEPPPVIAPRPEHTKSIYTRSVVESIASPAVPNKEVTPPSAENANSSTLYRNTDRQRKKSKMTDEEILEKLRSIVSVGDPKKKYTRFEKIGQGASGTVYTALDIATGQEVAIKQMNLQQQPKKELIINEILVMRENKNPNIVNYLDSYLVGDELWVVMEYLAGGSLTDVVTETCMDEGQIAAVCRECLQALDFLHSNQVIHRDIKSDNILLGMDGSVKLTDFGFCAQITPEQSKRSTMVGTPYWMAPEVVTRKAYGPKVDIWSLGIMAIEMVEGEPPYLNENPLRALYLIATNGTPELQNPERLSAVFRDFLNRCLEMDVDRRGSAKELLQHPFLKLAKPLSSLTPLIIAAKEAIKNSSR
Chain of Mast/stem cell growth factor receptor Kit (Homo sapiens) (P10721 whole entry): as the sequence (P10721 whole entry D816V) above, with V816D counted along it

C[C@@H]1CN(c2cc(-c3n[nH]c4ccc(OC5(C)CC5)cc34)ncn2)C[C@H](C)O1 [MLi-2]
inactive: [1]; [24] 100% | [2]; [24] 84% | [3]; [24] 100% | [4]; [24] 79% | [5]; [24] 87% | [6]; [24] 82% | [7]; [24] 59% | [8]; [24] 90% | [9]; [24] 100% | [10]; [24] 85% | [11]; [24] 99% | [12]; [24] 56% | [13]; [24] 100% | [14]; [24] 84% | [15]; [24] 74% | [16]; [24] 89% | [17]; [24] 80% | [18]; [24] 83% | [19]; [24] 67% | [20]; [24] 70% | [21]; [24] 67% | [22]; [24] 68% | [23]; [24] 100%

C[C@@H]1CN(c2cc(-c3nn(C)c4ccc(OC5(C)CC5)cc34)ncn2)C[C@H](C)O1 [MLi-2-NC]
inactive: [1]; [25] 85% | [2]; [25] 67% | [3]; [25] 90% | [4]; [25] 94% | [5]; [25] 93% | [6]; [25] 100% | [7]; [25] 76% | [8]; [25] 93% | [9]; [25] 100% | [10]; [25] 73% | [11]; [25] 96% | [12]; [25] 100% | [13]; [25] 80% | [14]; [25] 55% | [15]; [25] 67% | [16]; [25] 100% | [17]; [25] 100% | [18]; [25] 100% | [19]; [25] 65% | [20]; [25] 97% | [21]; [25] 92% | [22]; [25] 74% | [23]; [25] 84%
